{"source": "patent US12349677B2", "about": "“Antimicrobial composition” (CONOPCO, INC., priority 2018, dated 2025)", "system": "E. coli ATCC 10536", "test": "In-vitro antibacterial efficacy (bacteria remaining after 4 hours contact, plate count)", "assay_type": "cell-based", "settings": "contact time 4 hours at 37° C.", "method": "The following samples were tested for in-vitro antibacterial efficacy using the below mentioned protocol\nSodium phosphate buffer 10 mM for culture preparation pH 7.4\nThe test organism was subcultured from the glycerol stock (stored at −70° C.) onto a TSA slant and incubated at 37° C. for 18 to 24 hours. The slant was stored in a refrigerator for a maximum of two weeks after which a fresh slant was prepared.\nThe test organisms were streaked from TSA slants onto petri plates containing TSA and incubated at 37° C. for 21 to 22 hours before use.\nThe bacterial inoculums were prepared corresponding to 10^6 cells in 10 mM Sodium Phosphate Buffer from the above plate.\nThe OD of culture was adjusted to 0.8 for E. coli, to give 10^8 cells/ml. Once the bacterial inoculums corresponding to 10^8 cells is prepared in sodium phosphate buffer, it is serially diluted to 10^6 cells ([…] in 10 mM sodium phosphate buffer)\n135 μl bacterial inoculums (from 10^6 CFU/ml) was taken for all the treatments in a reaction volume of 300 μl (in a microtiter plate/96 well plate).\n15 μl of 100 mM buffer was taken for all controls and treatments so that the final conc. corresponds to ˜5 mM in all the reactions.\nThe respective compounds/actives to be tested were taken and made up to a volume of 300 μl with autoclaved distilled water.\nNote: Each treatment is kept in duplicates.\nThe microtiter plate was incubated at 37° C. for a contact time of 4 hours and then plated on TSA after required serial dilutions in neutralizer D/E to study bacterial kill.\nPlates were incubated overnight for E. coli\nThe colonies were counted to estimate the bacteria remaining and thereby the log kill.\nExperiments similar to the ones carried out for thymol+THPE were carried out with carvacrol+THPE. The antibacterial efficacy was measured in vitro as detailed above for examples 1 and A-C.\nExperiments similar to the ones carried out for thymol+THPE were carried out with eugenol+THPE. The antibacterial efficacy was measured in vitro as detailed above for examples 1 and A-C.", "key": {"[1]": {"settings": "Table 1, thymol/THPE series, culture control 6.36"}, "[2]": {"settings": "Table 4, carvacrol/THPE series, culture control 6.41"}, "[3]": {"settings": "Table 5, eugenol/THPE series, culture control 6.23"}}}
{"smiles": "CC(O)CN(CCN(CC(C)O)CC(C)O)CC(C)O", "note": "(stereo not shown) [B, tetrahydroxypropyl ethylenediamine]", "values": [{"measurement": "Average of bacteria remaining", "setting": "[1]", "result": 5.98, "unit": "log cfu/ml"}]}
{"smiles": "Cc1ccc(C(C)C)c(O)c1", "note": "[C, thymol]", "values": [{"measurement": "Average of bacteria remaining", "setting": "[1]", "result": 6.26, "unit": "log cfu/ml"}]}
{"smiles": "Cc1ccc(C(C)C)cc1O", "note": "[F, carvacrol]", "values": [{"measurement": "Average of bacteria remaining", "setting": "[2]", "result": 6.12, "unit": "log cfu/ml"}]}
{"smiles": "CC(O)CN(CCN(CC(C)O)CC(C)O)CC(C)O", "note": "(stereo not shown) [G, tetrahydroxypropyl ethylenediamine]", "values": [{"measurement": "Average of bacteria remaining", "setting": "[2]", "result": 5.97, "unit": "log cfu/ml"}]}
{"smiles": "CC(O)CN(CCN(CC(C)O)CC(C)O)CC(C)O", "note": "(stereo not shown) [H, tetrahydroxypropyl ethylenediamine]", "values": [{"measurement": "Average of bacteria remaining", "setting": "[2]", "result": 5.45, "unit": "log cfu/ml"}]}
{"smiles": "C=CCc1ccc(O)c(OC)c1", "note": "[J, Eugenol]", "values": [{"measurement": "Average of bacteria remaining", "setting": "[3]", "result": 6.15, "unit": "log cfu/ml"}]}
{"smiles": "CC(O)CN(CCN(CC(C)O)CC(C)O)CC(C)O", "note": "(stereo not shown) [K, tetrahydroxypropyl ethylenediamine]", "values": [{"measurement": "Average of bacteria remaining", "setting": "[3]", "result": 5.44, "unit": "log cfu/ml"}]}
